Test results: US20220132852A1, “PESTICIDALLY ACTIVE HETEROCYCLIC DERIVATIVES WITH SULFUR CONTAINING SUBSTITUENTS” (SYNGENTA CROP PROTECTION AG, priority 2019, published 2022)

Columns and labels:
Assay type in all cases: in vivo
[1] = test system: Euschistus heros (Neotropical Brown Stink Bug); test: Example B2: Activity against Euschistus heros (neotropical brown stink bug), sprayed soybean leaves; conditions: 120 h, application rate 200 ppm, N2 nymphs on sprayed soybean leaves, 5 days after infestation, read-out: effect in at least one of the two categories (mortality or growth inhibition)
Protocol: Example B2: Activity Against Euschistus heros (Neotropical Brown Stink Bug)
Soybean leaves on agar in 24-well microtiter plates were sprayed with aqueous test solutions prepared from 10′000 ppm DMSO stock solutions. After drying the leaves were infested with N2 nymphs. The samples were assessed for mortality and growth inhibition in comparison to untreated samples 5 days after infestation.

[2] = test system: Plutella xylostella (Diamond Back Moth); test: Example B3: Activity against Plutella xylostella (diamond back moth), artificial diet; conditions: 192 h, application rate 200 ppm, eggs on artificial diet, 8 days after infestation, read-out: effect in at least one of the two categories (mortality or growth inhibition)
Protocol: Example B3: Activity Against Plutella xylostella (Diamond Back Moth)
24-well microtiter plates with artificial diet were treated with aqueous test solutions prepared from 10′000 ppm DMSO stock solutions by pipetting. After drying, Plutella eggs were pipetted through a plastic stencil onto a gel blotting paper and the plate was closed with it. The samples were assessed for mortality and growth inhibition in comparison to untreated samples 8 days after infestation. The following compounds gave an effect of at least 80% in at least one of the two categories (mortality or growth inhibition) at an application rate of 200 ppm: P2, P4, P5, P6, P8, P9, P10, P11, P12, P14, P15, P16, P17, P18, P19, P20, P21, P22, P23, P24, P25, P26, P27, P28, P29, P30, P31, P32, P33, P34, P35, P36, P38, P39, P40, P42, P45, P46, P47, P49, P50, P51, P52.

[3] = test system: Diabrotica balteata (Corn Root Worm); test: Example B1: Activity against Diabrotica balteata (corn root worm), sprayed maize sprouts; conditions: 96 h, application rate 200 ppm, L2 larvae on sprayed maize sprouts, 4 days after infestation, read-out: effect in at least one of the two categories (mortality or growth inhibition)
Protocol: Example B1: Activity Against Diabrotica balteata (Corn Root Worm)
Maize sprouts placed onto an agar layer in 24-well microtiter plates were treated with aqueous test solutions prepared from 10′000 ppm DMSO stock solutions by spraying. After drying, the plates were infested with L2 larvae (6 to 10 per well). The samples were assessed for mortality and growth inhibition in comparison to untreated samples 4 days after infestation.

[4] = test system: Spodoptera littoralis (Egyptian Cotton Leaf Worm); test: Example B6: Activity against Spodoptera littoralis (Egyptian cotton leaf worm); conditions: foliar, 72 h, application rate 200 ppm, L1 larvae on sprayed cotton leaf discs, 3 days after infestation, read-out: control (mortality, anti-feeding effect or growth inhibition)
Protocol: Example B6: Activity Against Spodoptera littoralis (Egyptian Cotton Leaf Worm)
Cotton leaf discs were placed onto agar in 24-well microtiter plates and sprayed with aqueous test solutions prepared from 10′000 ppm DMSO stock solutions. After drying the leaf discs were infested with five L1 larvae. The samples were assessed for mortality, anti-feeding effect, and growth inhibition in comparison to untreated samples 3 days after infestation. Control of Spodoptera littoralis by a test sample is given when at least one of the categories mortality, anti-feedant effect, and growth inhibition is higher than the untreated sample.

CCS(=O)(=O)c1ccc(Cl)nc1-c1cc2cnn(CC(F)(F)C(F)(F)F)c2cn1 [Compound P49, 5-(6-chloro-3-ethylsulfonyl-2-pyridyl)-1-(2,2,3,3,3-pentafluoropropyl) pyrazolo[3,4-c]pyridine]
≥ 80%: percent effect (mortality or growth inhibition) at 200 ppm [1] | percent effect (mortality or growth inhibition) at 200 ppm [2] | percent effect (mortality or growth inhibition) at 200 ppm [3] | percent control (mortality, anti-feedant effect or growth inhibition) at 200 ppm [4]

CCSc1cc(C2(C#N)CC2)c[n+]([O-])c1-c1cc2ncn(CC(F)(F)C(F)(F)F)c2cn1 [PN8, 1-[5-ethylsulfanyl-1-oxido-6-[3-(2,2,3,3,3-pentafluoropropyl)imidazo[4,5-c]pyridin-6-yl]pyridin-1-ium-3-yl]cyclopropane-carbonitrile]
≥ 80%: percent effect (mortality or growth inhibition) at 200 ppm [1]

CCSc1cc(C2(C#N)CC2)cnc1-c1cc2ccn(CC(F)(F)C(F)(F)F)c2cn1 [Compound P37, 1-[5-ethylsulfanyl-6-[1-(2,2,3,3,3-pentafluoropropyl)pyrrolo[2,3-c]pyridin-5-yl]-3-pyridyl] cyclopropane-carbonitrile]
≥ 80%: percent effect (mortality or growth inhibition) at 200 ppm [3] | percent control (mortality, anti-feedant effect or growth inhibition) at 200 ppm [4]

CCSc1cc(C(F)(F)F)cnc1-c1cc2cnn(CC(F)(F)C(F)(F)F)c2cn1 [Compound P30, 5-[3-ethylsulfanyl-5-(trifluoromethyl)-2-pyridyl]-1-(2,2,3,3,3-pentafluoropropyl) pyrazolo[3,4-c] pyridine]
≥ 80%: percent effect (mortality or growth inhibition) at 200 ppm [1] | percent effect (mortality or growth inhibition) at 200 ppm [2] | percent effect (mortality or growth inhibition) at 200 ppm [3] | percent control (mortality, anti-feedant effect or growth inhibition) at 200 ppm [4]

CCS(=O)(=O)c1ccc(-n2cncn2)nc1-c1cc2ccn(CC(F)(F)C(F)(F)F)c2cn1 [Compound P35, 5-[3-ethylsulfonyl-6-(1,2,4-triazol-1-yl)-2-pyridyl]-1-(2,2,3,3,3-pentafluoropropyl) pyrrolo[2,3-c]pyridine]
≥ 80%: percent effect (mortality or growth inhibition) at 200 ppm [2] | percent effect (mortality or growth inhibition) at 200 ppm [3] | percent control (mortality, anti-feedant effect or growth inhibition) at 200 ppm [4]

CCSc1cc(C2CC2)c[n+]([O-])c1-c1cc2ncn(CC(F)(F)C(F)(F)F)c2cn1 [PN4, 6-(5-cyclopropyl-3-ethylsulfanyl-1-oxido-pyridin-1-ium-2-yl)-3-(2,2,3,3,3-pentafluoropropyl)imidazo[4,5-c]pyridine]
≥ 80%: percent effect (mortality or growth inhibition) at 200 ppm [1]

CCS(=O)(=O)c1cc(-n2ccc(C(F)(F)F)n2)cnc1-c1cc2cnn(CC(F)(F)C(F)(F)F)c2cn1 [Compound P45, 5-[3-ethylsulfonyl-5-[3-(trifluoromethyl)pyrazol-1-yl]-2-pyridyl]-1-(2,2,3,3,3-pentafluoropropyl) pyrazolo[3,4-c]pyridine]
≥ 80%: percent effect (mortality or growth inhibition) at 200 ppm [1] | percent effect (mortality or growth inhibition) at 200 ppm [2] | percent effect (mortality or growth inhibition) at 200 ppm [3] | percent control (mortality, anti-feedant effect or growth inhibition) at 200 ppm [4]

CCSc1cc(Oc2ccccn2)cnc1-c1cc2cnn(CC(F)(F)C(F)(F)F)c2cn1 [Compound P20, 5-[3-ethylsulfanyl-5-(2-pyridyloxy)-2-pyridyl]-1-(2,2,3,3,3-pentafluoropropyl) pyrazolo [3,4-c]pyridine]
≥ 80%: percent effect (mortality or growth inhibition) at 200 ppm [1] | percent effect (mortality or growth inhibition) at 200 ppm [2] | percent effect (mortality or growth inhibition) at 200 ppm [3] | percent control (mortality, anti-feedant effect or growth inhibition) at 200 ppm [4]

CCSc1cc(C2(C#N)CC2)cnc1-c1cc2ncn(CC(F)(F)C(F)(F)F)c2cn1 [Compound P38, 1-[5-ethylsulfanyl-6-[3-(2,2,3,3,3-pentafluoropropyl)imidazo[4,5-c]pyridin-6-yl]-3-pyridyl] cyclopropane-carbonitrile]
≥ 80%: percent effect (mortality or growth inhibition) at 200 ppm [1] | percent effect (mortality or growth inhibition) at 200 ppm [2] | percent effect (mortality or growth inhibition) at 200 ppm [3] | percent control (mortality, anti-feedant effect or growth inhibition) at 200 ppm [4]

CCS(=O)(=O)c1cc(NC)cnc1-c1cc2ccn(CC(F)(F)C(F)(F)F)c2cn1 [Compound P18, 5-ethylsulfonyl-N-methyl-6-[1-(2,2,3,3,3-pentafluoropropyl)pyrrolo[2,3-c]pyridin-5-yl]pyridin-3-amine]
≥ 80%: percent effect (mortality or growth inhibition) at 200 ppm [1] | percent effect (mortality or growth inhibition) at 200 ppm [2] | percent effect (mortality or growth inhibition) at 200 ppm [3] | percent control (mortality, anti-feedant effect or growth inhibition) at 200 ppm [4]

CCSc1cc(C2CC2)cnc1-c1cc2ncn(CC(F)(F)C(F)(F)F)c2cn1 [Compound P9, 6-(5-cyclopropyl-3-ethylsulfanyl-2-pyridyl)-3-(2,2,3,3,3-pentafluoropropyl) imidazo[4,5-c]pyridine]
≥ 80%: percent effect (mortality or growth inhibition) at 200 ppm [2] | percent effect (mortality or growth inhibition) at 200 ppm [3]

CCS(=O)(=O)c1cc(C2CC2)cnc1-c1cc2ccn(CC(F)(F)C(F)(F)F)c2cn1 [Compound P51, 5-(5-cyclopropyl-3-ethylsulfonyl-2-pyridyl)-1-(2,2,3,3,3-pentafluoropropyl) pyrrolo[2,3-c]pyridine]
≥ 80%: percent effect (mortality or growth inhibition) at 200 ppm [2] | percent effect (mortality or growth inhibition) at 200 ppm [3] | percent control (mortality, anti-feedant effect or growth inhibition) at 200 ppm [4]

CCS(=O)(=O)c1ccc(Cl)nc1-c1cc2ccn(CC(F)(F)C(F)(F)F)c2cn1 [Compound P36, 5-(6-chloro-3-ethylsulfonyl-2-pyridyl)-1-(2,2,3,3,3-pentafluoropropyl) pyrrolo[2,3-c]pyridine]
≥ 80%: percent effect (mortality or growth inhibition) at 200 ppm [2] | percent effect (mortality or growth inhibition) at 200 ppm [3] | percent control (mortality, anti-feedant effect or growth inhibition) at 200 ppm [4]

CCS(=O)(=O)c1cc(C(C)(C)C#N)cnc1-c1cc2ccn(CC(F)(F)C(F)(F)F)c2cn1 [Compound P19, 2-[5-ethylsulfonyl-6-[1-(2,2,3,3,3-pentafluoropropyl)pyrrolo[2,3-c]pyridin-5-yl]-3-pyridyl]-2-methyl-propanenitrile]
≥ 80%: percent effect (mortality or growth inhibition) at 200 ppm [1] | percent effect (mortality or growth inhibition) at 200 ppm [2] | percent effect (mortality or growth inhibition) at 200 ppm [3] | percent control (mortality, anti-feedant effect or growth inhibition) at 200 ppm [4]

CCSc1cc(-n2ccc(C(F)(F)F)n2)cnc1-c1cc2cnn(CC(F)(F)C(F)(F)F)c2cn1 [Compound P50, 5-[3-ethylsulfanyl-5-[3-(trifluoromethyl)pyrazol-1-yl]-2-pyridyl]-1-(2,2,3,3,3-pentafluoropropyl) pyrazolo[3,4-c]pyridine]
≥ 80%: percent effect (mortality or growth inhibition) at 200 ppm [2] | percent effect (mortality or growth inhibition) at 200 ppm [3] | percent control (mortality, anti-feedant effect or growth inhibition) at 200 ppm [4]

CCSc1cc(C(C)(C)C#N)cnc1-c1cc2ccn(CC(F)(F)C(F)(F)F)c2cn1 [Compound P29, 2-[5-ethylsulfanyl-6-[1-(2,2,3,3,3-pentafluoropropyl)pyrrolo[2,3-c]pyridin-5-yl]-3-pyridyl]-2-methyl-propanenitrile]
≥ 80%: percent effect (mortality or growth inhibition) at 200 ppm [2] | percent effect (mortality or growth inhibition) at 200 ppm [3]

CCSc1cc(-n2ccc(Cl)n2)cnc1-c1cc2cnn(CC(F)(F)C(F)(F)F)c2cn1 [Compound P39, 5-[5-(3-chloropyrazol-1-yl)-3-ethylsulfanyl-2-pyridyl]-1-(2,2,3,3,3-pentafluoropropyl) pyrazolo[3,4-c]pyridine]
≥ 80%: percent effect (mortality or growth inhibition) at 200 ppm [2] | percent effect (mortality or growth inhibition) at 200 ppm [3] | percent control (mortality, anti-feedant effect or growth inhibition) at 200 ppm [4]
